Read-outs that look alike come from different tables or passages of the source.
Key:
[1] = target: T1, EGFR[T790M/C797S/d746-750] (Homo sapiens, UniProt P00533, C797S/DEL746-750/T790M); assay: Inhibition of EGFR[T790M/C797S/d746-750] biochemical enzymatic activity (HTRF); conditions: 1 mM ATP, 1 h at room temperature
T1 construct: purchased Carna Bio
Procedure, shortened: (§1)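 Compounds at varying concentrations were tested against each EGFR form using 1 mM ATP and 1 μM TK Substrate-biotin. Reactions ran 1 h at room temperature in Mg2+/Mn2+ buffer with CHAPS, DTT and 0.5% DMSO. Time-resolved fluorescence gave IC50 by four-parameter fit.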

[2] = target: T2, EGFR Exon19Del (Homo sapiens, UniProt P00533, DEL746-750); assay: Inhibition of EGFR Exon19Del biochemical enzymatic activity (HTRF); conditions: 1 mM ATP, 1 h at room temperature
T2 construct: purchased Carna Bio
Procedure, shortened: as §1

[3] = target: T3, EGFR L858R (Homo sapiens, UniProt P00533, L858R); assay: Inhibition of EGFR L858R biochemical enzymatic activity (HTRF); conditions: 1 mM ATP, 1 h at room temperature
T3 construct: purchased Carna Bio
Procedure, shortened: as §1

[4] = target: T4, EGFR Exon19Del/T790M (Homo sapiens, UniProt P00533, DEL746-750/T790M); assay: Inhibition of EGFR Exon19Del/T790M biochemical enzymatic activity (HTRF); conditions: EGFR Exon19Del/T790M, 1 mM ATP, 1 h at room temperature
T4 construct: purchased Carna Bio
Procedure, shortened: as §1

[5] = target: T5, EGFR wild type (Homo sapiens, UniProt P00533); assay: Inhibition of EGFR wild type biochemical enzymatic activity (HTRF); conditions: EGFR wild type, 1 mM ATP, 1 h at room temperature
T5 construct: purchased Carna Bio
Procedure, shortened: as §1

[6] = target: T6, EGFR (d746-750 C797S) (Homo sapiens, UniProt P00533, C797S/DEL746-750); assay: Inhibition of EGFR (d746-750 C797S) biochemical enzymatic activity (HTRF); conditions: EGFR (d746-750 C797S), 1 mM ATP, 1 h at room temperature
T6 construct: purchased signalchem
Procedure, shortened: as §1

[7] = target: T7, EGFR[T790M/C797S/L858R] (Homo sapiens, UniProt P00533, C797S/L858R/T790M); assay: Inhibition of EGFR[T790M/C797S/L858R] biochemical enzymatic activity (HTRF); conditions: EGFR[T790M/C797S/L858R], 1 mM ATP, 1 h at room temperature
T7 construct: purchased Carna Bio
Procedure, shortened: as §1

[8] = target: T8, EGFR L858R/T790M (Homo sapiens, UniProt P00533, L858R/T790M); assay: Inhibition of EGFR L858R/T790M biochemical enzymatic activity (HTRF); conditions: EGFR L858R/T790M, 1 mM ATP, 1 h at room temperature
T8 construct: purchased Carna Bio
Procedure, shortened: as §1

[9] = test system: PC-9; assay: Cell proliferation assay, PC-9 cells (CellTiter-Glo, 72 hours); format: cell-based; conditions: Homo sapiens, PC-9, 72 h, PC9 cells, read-out: GI50 PC9
Procedure, shortened: (§2)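 In RPMI1640 medium (PC-9 with 10% FBS), each cell line was seeded at its own density: Ba/F3 5000 and PC-9 500 per well. A compound series was added the next day, with a time-zero viability plate read in parallel. Percent proliferation was subtracted for G0 and referenced to DMSO, and GI50 was derived by curve fitting.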

[10] = test system: A-431; assay: Cell proliferation assay, A-431 cells (GI50, Table 6); format: cell-based; conditions: Homo sapiens, A-431, A-431 cells
[11] = target: T9, EGFR (C797S L858R) (Homo sapiens, UniProt P00533, C797S/L858R); assay: Inhibition of EGFR (C797S L858R) biochemical enzymatic activity (HTRF); conditions: EGFR (C797S L858R), 1 mM ATP, 1 h at room temperature
T9 construct: purchased signalchem
Procedure, shortened: as §1

[12] = test system: Ba/F3 cells expressing EGFR mutations; assay: Cell proliferation assay, Ba/F3 cells expressing EGFR mutations (CellTiter-Glo, 72 hours); format: cell-based; conditions: Mus musculus, BaF3, 72 h
Procedure, shortened: as §2

[13] = EGFR[T790M/C797S/d746-750], read-out: IC50 @T790M - C797S - Del19
[14] = EGFR Exon19Del, read-out: IC50 @Del19
[15] = read-out: IC50 @T790M- C797S - L858R
[16] = BaF3 cells, EGFR DEL19 - C797S, read-out: GI50 DEL19 - C797S/BaF3
[17] = BaF3 cells, EGFR DEL19 - T790-C797S, read-out: GI50 DEL19 - T790-C797S/BaF3
[18] = BaF3 cells, EGFR L858R - C797S, read-out: GI50 L858R - C797S/BaF3
[19] = BaF3 cells, EGFR L858R - T790-C797S, read-out: GI50 L858R - T790-C797S/BaF3
[20] = BaF3 cells, EGFR L858R - T790M, read-out: GI50 L858R - T790M/BaF3
[21] = BaF3 cells, EGFR L858R, read-out: GI50 L858R/BaF3
[22] = EGFR DEL19 - T790M, read-out: GI50 DEL19 - T790M

T5 sequence (P00533 25-1210): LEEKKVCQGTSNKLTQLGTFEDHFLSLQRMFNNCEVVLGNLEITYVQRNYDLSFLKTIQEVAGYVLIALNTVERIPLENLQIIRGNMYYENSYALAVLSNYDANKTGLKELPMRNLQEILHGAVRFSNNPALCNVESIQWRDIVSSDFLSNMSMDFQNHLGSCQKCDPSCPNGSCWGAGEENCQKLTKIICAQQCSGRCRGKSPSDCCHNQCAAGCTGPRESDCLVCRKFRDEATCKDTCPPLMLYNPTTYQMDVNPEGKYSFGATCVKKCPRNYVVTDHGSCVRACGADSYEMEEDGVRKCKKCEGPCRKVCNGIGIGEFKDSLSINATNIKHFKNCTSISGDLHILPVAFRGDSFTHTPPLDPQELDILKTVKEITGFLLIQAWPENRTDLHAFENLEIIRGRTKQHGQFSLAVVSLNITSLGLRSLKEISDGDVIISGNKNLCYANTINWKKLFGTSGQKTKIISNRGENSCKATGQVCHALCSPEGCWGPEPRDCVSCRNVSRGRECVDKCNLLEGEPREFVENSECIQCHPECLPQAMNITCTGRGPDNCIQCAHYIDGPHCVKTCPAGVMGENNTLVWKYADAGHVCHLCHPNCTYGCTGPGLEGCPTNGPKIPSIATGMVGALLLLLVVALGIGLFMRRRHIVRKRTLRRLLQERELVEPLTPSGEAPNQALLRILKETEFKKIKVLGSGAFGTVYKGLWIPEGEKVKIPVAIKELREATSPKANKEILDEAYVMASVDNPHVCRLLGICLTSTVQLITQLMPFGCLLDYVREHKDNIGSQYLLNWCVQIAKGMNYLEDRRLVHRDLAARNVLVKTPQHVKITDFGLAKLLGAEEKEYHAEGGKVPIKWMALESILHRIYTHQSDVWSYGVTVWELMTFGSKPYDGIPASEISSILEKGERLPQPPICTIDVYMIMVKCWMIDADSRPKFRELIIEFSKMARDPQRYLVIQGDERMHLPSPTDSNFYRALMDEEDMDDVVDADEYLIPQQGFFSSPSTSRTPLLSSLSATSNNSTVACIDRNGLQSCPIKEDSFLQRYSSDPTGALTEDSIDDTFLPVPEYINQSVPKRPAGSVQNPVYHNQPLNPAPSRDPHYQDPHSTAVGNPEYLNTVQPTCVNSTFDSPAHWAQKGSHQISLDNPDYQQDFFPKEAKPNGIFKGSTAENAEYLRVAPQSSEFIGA
T3 sequence (P00533 25-1210 L858R): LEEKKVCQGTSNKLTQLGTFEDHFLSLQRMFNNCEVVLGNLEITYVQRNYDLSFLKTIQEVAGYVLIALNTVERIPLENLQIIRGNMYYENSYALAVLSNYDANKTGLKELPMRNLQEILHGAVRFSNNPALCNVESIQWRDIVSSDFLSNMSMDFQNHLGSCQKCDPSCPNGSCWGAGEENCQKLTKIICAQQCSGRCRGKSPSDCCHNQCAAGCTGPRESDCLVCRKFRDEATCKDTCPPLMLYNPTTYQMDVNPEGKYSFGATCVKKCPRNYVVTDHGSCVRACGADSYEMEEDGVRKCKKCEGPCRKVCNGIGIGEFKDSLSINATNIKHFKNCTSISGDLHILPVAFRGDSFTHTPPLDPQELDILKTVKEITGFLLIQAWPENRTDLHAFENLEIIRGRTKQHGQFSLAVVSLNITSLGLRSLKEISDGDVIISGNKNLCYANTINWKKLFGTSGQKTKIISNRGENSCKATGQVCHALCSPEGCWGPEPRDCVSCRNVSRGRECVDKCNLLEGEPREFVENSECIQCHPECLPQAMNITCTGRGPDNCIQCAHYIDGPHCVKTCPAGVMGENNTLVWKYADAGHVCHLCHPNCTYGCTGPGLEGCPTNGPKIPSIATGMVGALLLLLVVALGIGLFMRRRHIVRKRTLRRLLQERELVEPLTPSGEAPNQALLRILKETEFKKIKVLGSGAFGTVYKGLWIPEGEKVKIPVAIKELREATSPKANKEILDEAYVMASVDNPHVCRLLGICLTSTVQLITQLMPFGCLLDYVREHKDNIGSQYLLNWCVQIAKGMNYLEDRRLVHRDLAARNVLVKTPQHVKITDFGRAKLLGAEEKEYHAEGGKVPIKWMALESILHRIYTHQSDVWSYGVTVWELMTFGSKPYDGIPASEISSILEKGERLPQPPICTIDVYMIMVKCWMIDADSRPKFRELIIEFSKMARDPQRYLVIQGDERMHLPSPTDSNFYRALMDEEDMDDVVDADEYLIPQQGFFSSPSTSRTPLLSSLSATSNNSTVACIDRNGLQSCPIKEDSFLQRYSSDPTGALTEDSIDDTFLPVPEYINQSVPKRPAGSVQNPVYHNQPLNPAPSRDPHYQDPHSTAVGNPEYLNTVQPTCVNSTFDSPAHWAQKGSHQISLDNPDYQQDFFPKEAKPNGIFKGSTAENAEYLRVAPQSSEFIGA
T8 sequence (P00533 25-1210 T790M/L858R): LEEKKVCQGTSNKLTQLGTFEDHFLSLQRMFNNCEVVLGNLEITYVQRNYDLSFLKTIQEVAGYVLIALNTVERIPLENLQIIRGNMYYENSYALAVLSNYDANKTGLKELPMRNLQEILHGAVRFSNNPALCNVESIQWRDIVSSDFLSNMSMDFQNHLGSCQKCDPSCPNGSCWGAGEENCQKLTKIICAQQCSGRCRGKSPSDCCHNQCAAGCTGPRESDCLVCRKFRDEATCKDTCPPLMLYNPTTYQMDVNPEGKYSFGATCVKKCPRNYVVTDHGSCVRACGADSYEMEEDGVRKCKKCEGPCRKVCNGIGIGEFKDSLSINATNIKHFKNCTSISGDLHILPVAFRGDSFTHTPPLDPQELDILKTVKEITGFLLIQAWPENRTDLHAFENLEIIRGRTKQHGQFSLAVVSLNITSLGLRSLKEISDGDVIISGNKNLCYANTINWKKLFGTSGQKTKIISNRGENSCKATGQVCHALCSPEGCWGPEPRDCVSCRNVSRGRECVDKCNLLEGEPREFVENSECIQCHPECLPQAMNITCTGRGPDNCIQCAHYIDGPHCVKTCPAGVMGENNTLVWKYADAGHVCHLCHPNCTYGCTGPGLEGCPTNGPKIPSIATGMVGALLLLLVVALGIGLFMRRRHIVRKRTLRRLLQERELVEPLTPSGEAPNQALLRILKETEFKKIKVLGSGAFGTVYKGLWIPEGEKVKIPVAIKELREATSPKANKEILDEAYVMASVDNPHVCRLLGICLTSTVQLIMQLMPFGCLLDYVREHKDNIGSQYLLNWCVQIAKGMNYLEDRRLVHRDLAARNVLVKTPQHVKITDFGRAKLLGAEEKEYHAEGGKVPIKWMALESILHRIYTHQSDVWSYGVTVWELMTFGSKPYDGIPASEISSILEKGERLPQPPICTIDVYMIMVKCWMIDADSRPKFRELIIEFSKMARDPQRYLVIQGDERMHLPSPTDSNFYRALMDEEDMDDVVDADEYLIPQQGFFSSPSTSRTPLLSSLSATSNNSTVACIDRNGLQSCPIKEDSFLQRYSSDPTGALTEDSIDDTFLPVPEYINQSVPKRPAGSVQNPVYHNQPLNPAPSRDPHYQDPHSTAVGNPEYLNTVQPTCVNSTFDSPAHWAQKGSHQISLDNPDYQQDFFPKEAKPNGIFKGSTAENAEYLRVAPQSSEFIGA
T7 sequence (P00533 25-1210 T790M/C797S/L858R): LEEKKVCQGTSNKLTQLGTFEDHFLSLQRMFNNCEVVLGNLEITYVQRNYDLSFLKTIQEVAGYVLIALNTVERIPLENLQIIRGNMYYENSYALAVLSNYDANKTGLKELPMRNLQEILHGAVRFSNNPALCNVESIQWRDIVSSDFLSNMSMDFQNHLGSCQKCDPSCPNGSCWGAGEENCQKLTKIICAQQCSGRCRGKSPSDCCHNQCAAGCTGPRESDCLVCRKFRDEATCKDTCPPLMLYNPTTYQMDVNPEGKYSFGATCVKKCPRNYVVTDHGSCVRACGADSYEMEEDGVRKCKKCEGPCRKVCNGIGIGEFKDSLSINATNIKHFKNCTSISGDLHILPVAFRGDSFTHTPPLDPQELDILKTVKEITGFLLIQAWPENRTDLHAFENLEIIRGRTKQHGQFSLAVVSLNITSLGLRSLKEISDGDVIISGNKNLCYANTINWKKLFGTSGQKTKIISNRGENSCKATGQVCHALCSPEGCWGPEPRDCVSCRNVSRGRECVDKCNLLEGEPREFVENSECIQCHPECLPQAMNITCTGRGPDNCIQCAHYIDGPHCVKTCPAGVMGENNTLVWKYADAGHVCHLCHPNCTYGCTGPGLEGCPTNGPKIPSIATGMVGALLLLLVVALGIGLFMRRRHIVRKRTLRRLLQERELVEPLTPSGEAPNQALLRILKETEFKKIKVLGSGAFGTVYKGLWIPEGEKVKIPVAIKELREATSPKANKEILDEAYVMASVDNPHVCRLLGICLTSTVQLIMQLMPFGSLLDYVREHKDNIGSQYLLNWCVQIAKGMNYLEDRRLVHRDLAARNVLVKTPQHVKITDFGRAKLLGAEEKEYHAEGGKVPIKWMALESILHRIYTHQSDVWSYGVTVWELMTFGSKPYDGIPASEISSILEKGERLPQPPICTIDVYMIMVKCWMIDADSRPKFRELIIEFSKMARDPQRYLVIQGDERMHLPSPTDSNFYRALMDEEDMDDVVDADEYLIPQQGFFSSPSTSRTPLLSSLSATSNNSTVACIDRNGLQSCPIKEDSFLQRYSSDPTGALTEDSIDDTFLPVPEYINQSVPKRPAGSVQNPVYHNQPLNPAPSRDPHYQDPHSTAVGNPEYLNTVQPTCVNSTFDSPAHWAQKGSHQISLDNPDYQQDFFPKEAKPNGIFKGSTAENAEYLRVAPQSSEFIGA

Compound | IC50 [1, 13] | IC50 [2, 14] | IC50 ([3]; read-out: IC50 @L858R) | IC50 ([4]; read-out: IC50 @Del19-T790M) | IC50 ([5]; read-out: IC50 @WT) | IC50 ([6]; read-out: IC50 @Del19-C797S) | IC50 [7, 15] | IC50 ([8]; read-out: IC50 @L858R-T790M) | GI50 [9] | GI50 [10] | IC50 ([11]; read-out: IC50 @L858-C797S) | GI50 [12, 16] | GI50 [12, 17] | GI50 [12, 18] | GI50 [12, 19] | GI50 [12, 20] | GI50 [12, 21] | GI50 [12, 22] | other results
Cc1cc2cc(n1)-c1cnn(C)c1OCCC[C@@H](C)Cn1c(nc3ccc4c(c31)CCN(CCN(C)C)C4)NC2=O [Example B12, (11R)-18-[2-(dimethylamino)ethyl]-5,11,30-trimethyl-7-oxa-4,5,13,18,24,26,31-heptaazahexacyclo[26.3.1.0^{2,6}.0^{13,25}.0^{14,23}.0^{15,20}]dotriaconta-1(31),2(6),3,14,20,22,24,28(32),29-nonaen-27-one] | 2.6 nM | 3.7 nM | 44 nM | 2.5 nM | > 5000 nM | 2.3 nM | 3 nM | 3.9 nM | 12 nM | 1080 nM | 11 nM | 1.4 nM | 0.56 nM | 5.6 nM | 0.38 nM | 1 nM | 4 nM | 0.79 nM | 
Cc1cc2cc(n1)-c1cnn(C)c1OCCC[C@@H](C)Cn1c(nc3ccc4c(c31)CCN(C1COC1)C4)NC2=O [Example B13, (11R)-5,11,30-trimethyl-18-(oxetan-3-yl)-7-oxa-4,5,13,18,24,26,31-heptaazahexacyclo[26.3.1.0^{2,6}.0^{13,25}.0^{14,23}.0^{15,20}]dotriaconta-1(31),2(6),3,14,20,22,24,28(32),29-nonaen-27-one] | 4.1 nM | 5.8 nM | 160 nM | 3.2 nM | 2540 nM | 3.8 nM | 4.2 nM | 7 nM | 22 nM | 507 nM | 37 nM | 4.8 nM | 1 nM | 20 nM | 1.2 nM | 3.4 nM | 18 nM | 2.9 nM | 
Cc1cc2cc(n1)-c1cnn(C)c1OCCCCCn1c(nc3ccc4c(c31)CCNC4)NC2=O [Example B16, 5,30-dimethyl-7-oxa-4,5,13,18,24,26,31-heptaazahexacyclo[26.3.1.0^{2,6}.0^{13,25}.0^{14,23}.0^{15,20}]dotriaconta-1(31),2(6),3,14,20,22,24,28(32),29-nonaen-27-one] | 3.2 nM | 497 nM | > 5000 nM | 7.1 nM | > 5000 nM | 197 nM | 55 nM | 446 nM | 438 nM | 3230 nM | > 5000 nM | 57 nM |  | 297 nM | 8.8 nM | 308 nM | 286 nM | 29 nM | 
Cc1cc2cc(n1)-c1cnn(C)c1OCCCCCn1c(nc3ccc4c(c31)CCN(C1COC1)C4)NC2=O [Example B17, 5,30-Dimethyl-18-(oxetan-3-yl)-7-oxa-4,5,13,18,24,26,31-heptaazahexacyclo[26.3.1.0^{2,6}.0^{13,25}.0^{14,23}.0^{15,20}]dotriaconta-1(31),2(6),3,14,20,22,24,28(32),29-nonaen-27-one] | 51 nM | > 5000 nM | > 5000 nM | 128 nM | > 5000 nM | 2110 nM | 4160 nM | > 5000 nM | 71 nM | 1090 nM | > 5000 nM | 26 nM | 10 nM | 82 nM | 6 nM | 21 nM | 114 nM | 8.7 nM | 
Cc1cc2cc(n1)-c1cnn(C)c1OCCN1CC3CCC(CC3)(C1)n1c(nc3ccc(N4CCC(N(C)C)CC4)cc31)NC2=O [Example B27, 5-[4-(dimethylamino)piperidin-1-yl]-15,21-dimethyl-23-oxa-2,9,11,16,20,21,26-heptaazaheptacyclo[26.2.2.1^{1,26}.1^{13,17}.0^{2,10}.0^{3,8}.0^{18,22}]tetratriaconta-3,5,7,9,13,15,17(34),18(22),19-nonaen-12-one] |  |  |  |  |  |  |  |  | 19 nM | 3600 nM |  | 2 nM | 2 nM | 22 nM | 2 nM | 5 nM | 17 nM | 2 nM | IC50 ([1]; IC50 @T790M - C797S - Del19, EGFR[T790M/C797S/d746-750]): 3.1 nM; IC50 ([2]; IC50 @Del19, EGFR Exon19Del): 11 nM; IC50 ([3]; IC50 @L858R): 67 nM; IC50 ([4]; IC50 @Del19-T790M): 8.3 nM; IC50 ([5]; IC50 @WT): 3540 nM; IC50 ([6]; IC50 @Del19-C797S): 6.3 nM; IC50 ([7]; IC50 @T790M- C797S - L858R): 3.8 nM; IC50 ([8]; IC50 @L858R-T790M): 8.3 nM; IC50 ([11]; IC50 @L858-C797S): 30 nM
Cc1cc2cc(n1)-c1cnn(C)c1OCCN1CC3CCC(CC3)(C1)n1c(nc3ccc(N4CC[C@H](N(C)C)C4)cc31)NC2=O [Example B28] | 7.8 nM | 23 nM | 320 nM | 9.5 nM | > 5000 nM | 14 nM | 5.9 nM | 17 nM | 98 nM | 7810 nM | 145 nM | 17 nM | 5 nM | 116 nM | 11 nM | 34 nM | 85 nM | 5 nM | 
Cc1cc2cc(n1)-c1cnn(C)c1OCCN1CC3CCC(CC3)(C1)n1c(nc3ccc(N4CCC5(CC4)CCN5C)cc31)NC2=O [Example B30] | 4.9 nM | 17 nM | 110 nM | 12 nM | > 5000 nM | 8.7 nM | 5.6 nM | 11 nM | 33 nM | 3560 nM | 64 nM | 3 nM | 2 nM | 35 nM | 4 nM | 9 nM | 22 nM | 2 nM | 
Cc1cc2cc(n1)-c1cnn(C)c1OCCN1CC3CCC(CC3)(C1)n1c(nc3ccc(N(C)CCN(C)C)cc31)NC2=O [Example B32] | 2.3 nM | 17 nM | 197 nM | 6.6 nM | > 5000 nM | 13 nM | 3.9 nM | 11 nM | 81 nM | 7410 nM | 117 nM | 11 nM | 3 nM | 78 nM | 7 nM | 20 nM | 64 nM | 4 nM | 
